One assay concerns the target Aurora Kinase B (Homo sapiens, UniProt Q96GD4). Put plainly: Biochemical enzyme assay for Aurora B activity (Caliper mobility shift). Conditions: LC3000 or Desktop Profiler. The procedure: (§1) The Aurora assays described here were performed on two Caliper Life Sciences systems, the LC3000 and the Desktop Profiler. These provide data on enzyme activity via measurement of the relative amounts of phosphorylated or unphosphorylated fluorescently labelled substrate peptide at the end of an enzymatic reaction. These different states of peptide are resolved by applying a potential difference across the sample. The presence of a charged phosphate group on the product (as opposed to the substrate) causes a different peptide mobility between the two peptides. This is visualized by excitation of a fluorescent label on the substrate and product peptides and represented as peaks within the analysis software.
(§2) The Desktop Profiler utilizes the same prinicipal as the LC 3000 for calculating percentage conversion of a substrate to product. Caliper Life Sciences provided proprietary flash frozen pre-made 384 well plates containing selected kinases. Each column in the 384 well plate contained a particular selected kinase. A second plate, the ‘substrate plate’ contained a mix of fluorescently labeled peptide substrate and ATP. These were arranged in columns so that transfer for substrate plate to enzyme plate provided the correct enzyme with the correct substrate/ATP concentration.
(§3) Compounds were added to a thawed enzyme plate in the desired format, in single concentrations. Reactions were initiated by transfer of the substrate/ATP mix from the substrate plate. The enzyme plate was incubated for 90 mins at 25° C. The reaction was stopped by addition of 70 μl of Stop Buffer (100 mM HEPES pH 7.5, 0.015% Brij-35, 10 mM EDTA (Sigma, E7889)).
Plates were read in a manner identical to that of the LC3000, and the ratio between substrate and product peaks provided the activity of the enzyme in that well. This was best represented by a plate heat map which colors each well by percent inhibition as compared to positive and negative controls (no inhibitors and no ATP respectively).

Another assay concerns the target T1, Aurora Kinase A (Homo sapiens, UniProt O14965).
T1 construct: full length Aurora A (1-403 amino acids); purchased Carna Biosciences 05-101
T1 sequence (O14965 1-403): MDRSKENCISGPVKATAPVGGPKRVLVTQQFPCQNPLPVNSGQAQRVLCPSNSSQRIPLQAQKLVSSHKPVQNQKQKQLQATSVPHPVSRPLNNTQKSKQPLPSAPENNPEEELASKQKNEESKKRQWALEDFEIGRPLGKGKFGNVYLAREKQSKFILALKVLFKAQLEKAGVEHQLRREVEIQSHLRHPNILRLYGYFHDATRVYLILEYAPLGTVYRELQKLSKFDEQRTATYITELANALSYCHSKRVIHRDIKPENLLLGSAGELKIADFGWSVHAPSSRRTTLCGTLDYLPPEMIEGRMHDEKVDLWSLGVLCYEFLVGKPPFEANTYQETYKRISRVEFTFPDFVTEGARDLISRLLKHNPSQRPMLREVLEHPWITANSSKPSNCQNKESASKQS
Put plainly: Biochemical enzyme assay for Aurora A activity (Caliper LC3000 / Desktop Profiler mobility shift). The following applies: GST-Aurora A, 15 μM ATP, 90 min at 25° C.; LC3000 or Desktop Profiler; read-out: Aurora Kinase A IC50. The procedure:
as §1
In order to measure inhibitor activity of Aurora A inhibitors in the Caliper Life Sciences LC3000, a TTP Mosquito liquid handling instrument was used to place 0.25 μl of an appropriate concentration of inhibitor in 100% DMSO (for a dose response curve calculation) into each well of a 384-well plate.
The reaction was incubated for 90 min at 25° C., and then stopped by the addition of 70 μl of Stop buffer (100 mM HEPES pH 7.5, 0.015% Brij-35, 10 mM EDTA (Sigma, E7889)).
The plate was read on a Caliper LC 3000 in an Off-Chip mobility shift assay format, using the following parameters for a 12-sipper chip: screening pressure −1.8 psi, upstream voltage −2700, downstream voltage −1000. These conditions cause unphosphorylated substrate and phosphorylated product peptide to resolve as separate peaks allowing direct measurement of percentage of conversion of substrate to product.
as §2, §3
Plates were read in a manner identical to that of the LC3000, and the ratio between substrate and product peaks provided the activity of the enzyme in that well.

Each structure is given as a SMILES string. Some results are limits rather than exact numbers.

This is an account of results in patent publication US20110269758A1, “NAPHTHYRIDINONES AS PROTEIN KINASE INHIBITORS” (MERCK PATENT GMBH, priority 2008, published 2011).

Sequence of Aurora Kinase B (Q96GD4 whole entry): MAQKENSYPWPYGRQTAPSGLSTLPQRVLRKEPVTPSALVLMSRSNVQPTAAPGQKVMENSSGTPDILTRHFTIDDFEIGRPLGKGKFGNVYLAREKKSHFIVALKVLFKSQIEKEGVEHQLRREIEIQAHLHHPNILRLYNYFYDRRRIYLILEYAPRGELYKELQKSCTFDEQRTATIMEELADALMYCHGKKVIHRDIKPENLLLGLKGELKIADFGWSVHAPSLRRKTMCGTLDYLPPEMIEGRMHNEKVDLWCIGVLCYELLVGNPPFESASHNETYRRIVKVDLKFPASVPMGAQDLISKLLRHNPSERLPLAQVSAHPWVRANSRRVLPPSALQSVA

As to `Nc1ccc(NC(=O)c2ccccc2C(F)(F)F)cc1` [Compound 5, N-(4-Aminophenyl)-2-trifluoromethyl-benzamide], the IC50 at Aurora Kinase B and at Aurora Kinase A was 1 to 300 nM in each case.

`Nc1ccc(NC(=O)c2ccc(C(F)(F)F)cc2)cc1` [Compound 6, N-(4-Aminophenyl)-4-trifluoromethyl-benzamide]: the half-inhibitory concentration (IC50) on Aurora Kinase B and at Aurora Kinase A was 1 to 300 nM each time.

With `Nc1ccc(NC(=O)c2c(F)cccc2F)cc1` [Compound 9, N-(4-Aminophenyl)-2,6-difluoro-benzamide], the concentration for half-maximal inhibition (IC50) at Aurora Kinase B and on Aurora Kinase A was 1 to 300 nM throughout.

In the case of `O=C(Nc1ccc(Nc2ccnc3[nH]c(=O)ccc23)cc1)c1ccccc1C(F)(F)F` [Compound 37, 2-Trifluoromethyl-N-(4-(7-oxo-7,8-dihydro-1,8-naphthyridin-4-yl-amino)phenyl)benzamide], the IC50 on Aurora Kinase B and at Aurora Kinase A was 601 to 1000 nM throughout.

Regarding `O=C(Nc1ccc(Nc2ccnc3[nH]c(=O)ccc23)cc1)c1ccc(C(F)(F)F)cc1` [Compound 38, 4-Trifluoromethyl-N-(4-(7-oxo-7,8-dihydro-1,8-naphthyridin-4-yl-amino)phenyl)benzamide], the IC50 at Aurora Kinase B and at Aurora Kinase A was > 1000 nM throughout.

Regarding `O=C(Nc1ccc(Nc2ccnc3[nH]c(=O)ccc23)cc1)c1cccc(C(F)(F)F)c1F` [Compound 39, 2-Fluoro-3-Trifluoromethyl-N-(4-(7-oxo-7,8-dihydro-1,8-naphthyridin-4-yl-amino)phenyl)benzamide], the IC50 at Aurora Kinase B and on Aurora Kinase A was > 1000 nM throughout.

For `O=C(Nc1ccc(Nc2ccnc3[nH]c(=O)ccc23)cc1)c1cc(C(F)(F)F)cc(C(F)(F)F)c1` [Compound 49, 3,5-Bis(trifluoromethyl)-N-(4-(7-oxo-7,8-dihydro-1,8-naphthyridin-4-yl-amino)phenyl)benzamide], at Aurora Kinase A, the half-maximal inhibitory concentration (IC50) is > 1000 nM.

As to `O=C(Nc1ccc(Nc2ccnc3[nH]c(=O)ccc23)cc1)c1ccc(OC(F)(F)F)cc1` [Compound 56, 4-Trifluoromethoxy-N-(4-(7-oxo-7,8-dihydro-1,8-naphthyridin-4-yl-amino)phenyl)benzamide], the 50% inhibitory concentration (IC50) at Aurora Kinase A was 601 to 1000 nM.

For the compound `O=C(Nc1ccc(Nc2ccnc3nc(Cl)ccc23)cc1)c1ccccc1` [Compound 63, N-(4-(7-Chloro-1,8-naphthyridin-4-yl-amino)phenyl)benzamide], the IC50 on Aurora Kinase A lay within 1 to 300 nM.

Turning to `CN(C)C1CCN(c2ccc3c(Nc4ccc(C(=O)Nc5ccccc5)cc4)ccnc3n2)CC1` [Compound 64], the IC50 at Aurora Kinase A lay in the range of 1 to 300 nM.

Take `CN(C)CCCOc1ccc2c(Nc3ccc(C(=O)Nc4ccccc4)cc3)ccnc2n1` [Compound 69, N-(4-(7-(4-Dimethylamino-propoxy)-1,8-naphthyridin-4-yl-amino)phenyl)benzamide]: the concentration for half-maximal inhibition (IC50) at Aurora Kinase A is > 1000 nM.

With `CC(C)(C)C(=O)Nc1nccc(Cl)c1C(=O)c1ccccc1` [Compound 73, N-(3-Benzoyl-4-chloropyridin-2-yl)-2,2-dimethylpropanamide], the IC50 at Aurora Kinase A fell in the range of 1 to 300 nM.

For `Nc1nccc(Cl)c1C(=O)c1ccccc1` [Compound 74, (2-Amino-4-chloro-pyridin-3-yl)-phenyl-methanone], the IC50 at Aurora Kinase A was 1 to 300 nM.

On to `CC(C)(C)OC(=O)c1c(-c2ccccc2)c2c(Cl)ccnc2[nH]c1=O` [Compound 75, 5-Chloro-2-oxo-4-phenyl-1,2-dihydro-1,8-naphthyridi-3-carboxylic acid tert-butyl ester], for which the IC50 at Aurora Kinase A lay in the range of 1 to 300 nM.

On to `O=C(Nc1ccc(Nc2ccnc3[nH]c(=O)c(C(=O)O)c(-c4ccccc4)c23)cc1)c1ccc(F)c(F)c1` [Compound 76, 5-[(3,4-Difluoro-benzoylamino)-phenylamino]-2-oxo-4-phenyl1,2-dihydro-1,8-naphthyridine-3-carboxylic acid], for which the IC50 on Aurora Kinase A lay within 1 to 300 nM.

Take `CN(C)CCNC(=O)c1c(-c2ccccc2)c2c(Nc3ccc(NC(=O)c4ccc(F)c(F)c4)cc3)ccnc2[nH]c1=O` [Compound 77, 5-[(3,4-Difluoro-benzoylamino)-phenylamino]-2-oxo-4-phenyl-1,2-dihydro-1,8-naphthyridine-3-carboxylic acid (2-dimethylamino-ethyl)-amide]: the IC50 on Aurora Kinase A was > 1000 nM.

Turning to `O=C(Nc1ccc(Nc2ccnc3[nH]c(=O)c(C(=O)NCCO)c(-c4ccccc4)c23)cc1)c1ccc(F)c(F)c1` [Compound 78, 5-[(3,4-Difluoro-benzoylamino)-phenylamino]-2-oxo-4-phenyl-1,2-dihydro-1,8-naphthyridine-3-carboxylic acid (2-hydroxy-ethyl)-amide], the IC50 on Aurora Kinase A fell in the range of 1 to 300 nM.

Consider `O=C(Nc1ccc(Nc2ccnc3[nH]c(=O)c(C(=O)NC[C@H](O)CO)c(-c4ccccc4)c23)cc1)c1ccc(F)c(F)c1` [Compound 79, 5-[(3,4-Difluoro-benzoylamino)-phenylamino]-2-oxo-4-phenyl-1,2-dihydro-1,8-naphthyridine-3-carboxylic acid ((S)2,3-dihydroxypropyl)-amide], for which the half-maximal inhibitory concentration (IC50) at Aurora Kinase A is > 1000 nM.

As to `O=C(O)Cc1cc2c(Cl)ccnc2[nH]c1=O` [Compound 80, (5-Chloro-2-oxo-1,2-dihydro-1,8-naphthyridin-3-yl)-acetic acid], the IC50 at Aurora Kinase A lay in the range of 1 to 300 nM.

As for `O=C(Cc1cc2c(Nc3ccc(NC(=O)c4ccc(F)c(F)c4)cc3)ccnc2[nH]c1=O)NCCO` [Compound 82], at Aurora Kinase A, the IC50 was 1 to 300 nM.

On to `Nc1ncnc(Nc2ccc(NC(=O)c3ccccc3)cc2)c1C=O` [Compound 83, N-[4-(6-Amino-5-formyl-pyrimidin-4-ylamino)-phenyl]-benzamide], for which the IC50 on Aurora Kinase A is > 1000 nM.

For the compound `COC(=O)c1cc2c(Nc3ccc(NC(=O)c4ccccc4)cc3)ncnc2[nH]c1=O` [Compound 84, 4-(4-Benzoylamino-phenylamino)-7-oxo-7,8-dihydro-pyrido[2,3-d]pyrimidine-6-carboxylic acid methyl ester], the concentration for half-maximal inhibition (IC50) on Aurora Kinase A is > 1000 nM.

For `O=C(Nc1ccc(Nc2ncnc3[nH]c(=O)c(C(=O)O)cc23)cc1)c1ccccc1` [Compound 85, 4-(4-Benzoylamino-phenylamino)-7-oxo-7,8-dihydro-pyrido[2,3-d]pyrimidine-6-carboxylic acid], the IC50 at Aurora Kinase A is > 1000 nM.

Consider `CN(C)CCNC(=O)c1cc2c(Nc3ccc(NC(=O)c4ccccc4)cc3)ncnc2[nH]c1=O` [Compound 86, 4-(4-Benzoylamino-phenylamino)-7-oxo-7,8-dihydro-pyrido[2,3-d]pyrimidine-6-carboxylic acid 2-(dimethylamino-ethyl)-amide], for which the half-inhibitory concentration (IC50) is 601 to 1000 nM at Aurora Kinase B and > 1000 nM on Aurora Kinase A.

With `O=C(Nc1ccc(Nc2ccnc3[nH]c(=O)c([N+](=O)[O-])cc23)cc1)c1ccc(F)c(F)c1` [Compound 87, 3,4-Difluoro-N-(4-(6-nitro-7-oxo-7,8-dihydro-1,8-naphthyridin-4-ylamino)phenyl)benzamide], the IC50 at Aurora Kinase A was in the range of 1 to 300 nM.

Regarding `O=C(Nc1ccc(Nc2ccnc3[nH]c(=O)c([N+](=O)[O-])cc23)cc1)c1ccc(F)cc1C(F)(F)F` [Compound 88, 4-Fluoro-2-trifluoromethyl-N-(4-(6-nitro-7-oxo-7,8-dihydro-1,8-naphthyridin-4-yl-amino)phenyl)benzamide], the IC50 at Aurora Kinase A fell in the range of 1 to 300 nM.

As to `Nc1cc2c(Nc3ccc(NC(=O)c4ccc(F)c(F)c4)cc3)ccnc2[nH]c1=O` [Compound 89, 3,4-Difluoro-N-(4-(6-amino-7-oxo-7,8-dihydro-1,8-naphthyridin-4-yl-amino)phenyl)benzamide], the IC50 at Aurora Kinase B and on Aurora Kinase A was 1 to 300 nM each time.
